In data set [1] the test system is HSV-1. Nature of the data set: HSV-1 DualF infection of iPSC-derived NPC monolayers, flow cytometry of EGFP/RFP. Format: cell-based. The conditions noted are these: for reduction of the percentage of EGFP+-RFP+ cells / anti-HSV-1 activity: 10 μM; for reduction of the percentage of EGFP+-RFP+ cells: MOI 0.1, added 2 h after infection, day 3 p.i., flow cytometry; for antiviral efficacy of ACV compared with Ia: ACV 50 μM vs Ia 10 μM; for anti-HSV-1 activity: 01SD and 9001 NPCs. Background: A flow cytometer gives signals particle by particle.

The test system of data set [2] is 01SD NPC cultures. Nature of the data set: Cytotoxicity in uninfected 01SD NPC cultures, flow cytometry with fixable viability dye. Format: cell-based, human. The conditions noted are these: uninfected 01SD NPCs.
The subject of data set [3] is HSV-1. It is filed as cell-based. The conditions noted are these: 9001 and 01SD brain organoids, fourteen-week old; compounds 10 μM, ACV 50 μM; day 3 p.i.
Data set [4] has as its system SARS-CoV2. The data set is described as follows: NIH-NIAID in vitro SARS-CoV2 viral replication assay in Calu3 cells. Format: cell-based.
Data set [5] deals with 02SF NPCs. Nature of the data set: RNA sequencing of uninfected NPCs treated with compounds. It is filed as cell-based, human. Conditions: 10 μM, 72 hours; of 12,433 expressed genes; FDR corrected p<=0.05.
For data set [6], the system named is eukaryotic initiation factor 2 (EIF2) signaling pathway. The data set is described as follows: Ingenuity Pathway Analysis of differentially expressed genes. Format: cell-based, human. Conditions: IPA of DEG, treated vs vehicle; 10 μM. The method, then:
Differentially Expressed Genes (DEG) measured by comparing 2b- and Ia (compound 8)-treated NPCs vs. vehicle-treated NPCs were subjected to Ingenuity Pathway Analysis (IPA). The top 10 pathways showing the greatest statistical significance (Fisher's Exact Test p-value) are shown. Activation (+ve z-score, orange bars) or inhibition (−ve z-score, blue bars) of each pathway is a measure of experimentally determined gene expression changes reported in the literature. Data were analyzed through the use of QIAGEN Ingenuity® Pathway Analysis. The intensity of color indicates the degree of activation/inhibition. Pathways without an activity pattern are in grey. Ratios (orange square above each pathway) represent the degree of overlap between DEG and all members of a given pathway. Y-axis on the right indicates ratio values.
Statistical significance was calculated using right-tailed Fisher Exact Probability Tests; biological pathways showing p-value<0.05 were considered statistically significant. […] IPA analyses also indicated net upregulation in the autophagy and sirtuin signaling pathways.

Data set [7] deals with eIF2α phosphorylated on Serine 51. Nature of the data set: Immunocytochemistry of eIF2α phosphorylated on serine 51 in NPC cultures. Format: cell-based, human. The conditions noted are these: 9001 NPCs; 10 μM; 24 hours; vs untreated or 7-treated. As to the method: (A) NPCs derived from 9001 iPSC lines were exposed to compounds 7, Ia (compound 8), and 2b (10 μM). After 24 hours, cells were fixed and stained with an antibody that detects eIF2α phosphorylated on Serine 51 (EIF2S1). Nuclei were counterstained with Hoechst 33342, and phosphorylation was assessed by fluorescence microscopy. (B) The corrected total cell fluorescence (CTCF) was obtained by measuring EIF2S1 fluorescence in cells where a fluorescent signal could be detected and normalizing for cellular area using equation CTCF=integrated density−(cellular area×mean fluorescence of background readings) (C-D). Up-regulation of the EIF2A kinase EIF2AK3 (C) and the activated transcription factor 4 (ATF4) (D) in 2b- and Ia (compound 8)-treated NPCs. (E) Proposed mechanism of action of 2b and Ia (compound 8).

For data set [8], the system named is Calu3 (ATCC, HTB-55) cells. Conditions: assessed at NIH.
Data set [9] concerns HSV-1. The conditions noted are these: earlier work, refs 3d, 5a; cited from earlier work.
Data set [10] concerns HSV-1. The conditions noted are these: ex vivo mouse model; earlier work; cited from earlier work.
For data set [11], the system named is fibroblasts and hepatocytes. The conditions noted are these: earlier work; cited from earlier work.
Data set [12] concerns iPSC-derived neural progenitor cells (NPCs). The conditions noted are these: earlier work; cited from earlier work.
For data set [13] the following is noted: earlier work, refs 5a, 5b; cited from earlier work.
A short description of data set [14]: Solubility in DMSO.
Data set [15] has as its system 9001 and 01SD brain organoids. The data set is described as follows: Organoid viability, calcein AM assay. It is filed as cell-based, human. The conditions noted are these: without HSV-1 infection; concentrations up to 50 μM. The method, then:
(A) Sixteen-week old 9001 and 01SD brain organoids were infected individually with HSV-1 DualF construct (6000 pfu/organoid). After 2 hours the inocula were removed and Ia was added to varying concentrations (100 nM-[…]). The IC50 was estimated by determining the corrected total cell fluorescence (CTCF) obtained by measuring EGFP fluorescence in organoids using ImageJ and normalizing for background using equation CTCF=integrated density−(area of the organoid x mean fluorescence of background readings). (b) Cytotoxicity of compound Ia without HSV-1 infection was assessed using calcein-AM. The fluorescence of calcein-AM in each organoid was measured and CTCF was determined as described above. The data represent an average of six independent experiments. Error bars represent standard deviations. No significant difference were found between conditions. […]
Organoids viability was analyzing using calcein AM assay (BioLegend; catalogue #425201), according to manufacturer's instructions. […] After incubation, fluorescence signals were recorded using a LEICA DMIL LED Fluorescent microscope through a 0.16NA 4x air objective.
The corrected total cell fluorescence (CTCF) was obtained by measuring EGFP fluorescence in 799-treated and untreated organoids, and normalizing for whole organoid area using equation CTCF=integrated density−(whole organoid area x mean fluorescence of background readings).

The subject of data set [16] is HSV-1 strain 17syn+. Nature of the data set: In vivo mouse eye HSV-1 infection (corneal scarification), plaque assay of eye swabs. The arrangement: species or system ND4 Swiss mice. The text has this:
ND4 swiss mice were infected by corneal scarification with 1×10^5 pfu of HSV-1 strain 17syn+. Eyes were swabbed daily for 4 days and assayed for infectious virus by standard plaque assay.
The antiviral efficacy of compound Ia was further investigated in an in vivo mouse model. In order to assess the efficacy of Ia against an acute infection go HSV-1 in vivo, ND4 Swiss mice were infected in the eyes with HSV-1 following light corneal scarification. At the same time that the virus was applied, one group of mice (n=10) were treated with 2 uL of a 50 μM solution of R799 in DMSO and the other group (n=10) were treated with 2 uL DMSO (vehicle), applied to the eyes. The eyes were treated with either vehicle or Ia each day for 4 days. In order to assess the effect of Ia on the course of the infection, the eyes were swabbed daily with a Dacron swab, and the virus eluted in MEM medium. The swab eluate was assessed for the presence of infectious virus by standard plaque assay on rabbit skin cell monolayers.

The text below walks through data of patent US20250066306A1, “COMPOUNDS FOR TREATING MICROBIAL INFECTIONS, METHODS OF MAKING AND USES THEREOF” (McMaster University, priority 2023, published 2025).

As a reminder, the pIC50 is −log10 of the IC50, conventionally taken in molar units.

pIC50: −log10 of the molar value. Entries after “also recorded” stand apart in the source; their conditions may differ. Read-outs that look alike come from different tables or passages of the source. A value given as a limit tells only on which side of the number the result lay.

For `O=C1N[C@H]2[C@H](O)[C@H](O)[C@@H](O)C[C@@H]2c2cc3c(cc21)OCO3` (relative stereo) [Compound 2b, trans-dihydrolycoricidine, reference compound], the “reduction of the percentage of EGFP+-RFP+ cells” value in data set [1] (01SD NPCs) is recorded as 8016 fold; in data set [1] (9001 NPCs), 424 fold. Besides, the “concentration from which a reduction in cell viability was observed” value in data set [2] was at least 25 µM. Further, the “anti-HSV-1 activity (expression of EGFP and RFP reporter genes)” value in data set [3] is “no expression of EGFP and RFP reporter genes”. Also, in data set [4] (SARS-CoV2 in Calu3 cells, assessed at NIH, read-out: IC50), the pIC50 was 6.74. For the same compound, the “fraction of expressed genes significantly altered” value in data set [5] stood at 62.5%. The “number of genes whose expression was significantly altered” value in data set [5] is on record as 7,766. For the same compound, in [6], the “EIF2 signaling pathway z score” value is −2.857. Further, the “eIF2α~P immunoreactivity” value in [7] is “increased eIF2α˜P immunoreactivity”. Also, the CC in data set [8] worked out at 3.48 µM. Also, the “inhibition of HSV-1 replication compared with acyclovir” value in data set [9] is reported as “more efficaciously than acyclovir”. Further, the “HSV-1 reactivation from latency” value in [10] is “prevents HSV-1 reactivation from latency”. The “toxicity in comparison to acyclovir” value in [11] is “Slightly higher toxicity”; in [12], “lower toxicity”.
In the case of `Nc1nc2c(ncn2COCCO)c(=O)[nH]1` [ACV, acyclovir, reference compound], the “antiviral efficacy of ACV compared with Ia” value in [1] (01SD NPCs, p=0.0208) is given as “inferior to Ia”; in [1] (9001 NPCs, p=0.3597), “comparable”.
For the compound `O=C1NC2C(CC(O)C(O)C2O)c2cc3c(cc21)OCO3` (stereo not drawn) [C3-epimer of 2b], the antiviral activity result in [13] is “totally devoid of antiviral activity”.
As to `COc1ccc2c(c1)[C@H]1C[C@H](O)[C@@H](O)[C@@H](O)[C@@H]1NC2=O` [Compound 5, (2S,3R,4S,4aR,10bR)-2,3,4-Trihydroxy-9-methoxy-1,3,4,4a,5,10b-hexahydrophenanthridin-6(2H)-one], the anti-HSV-1 activity entry in [1] is reported as “no anti-HSV-1 activity”. Further, in [14], the “solubility in DMSO” value was “incompletely soluble in DMSO”.
`O=C1N[C@H]2[C@H](O)[C@H](O)[C@@H](O)C[C@@H]2c2cc(O)ccc21` [Compound 6, (2S,3R,4S,4aR,10bR)-2,3,4,9-Tetrahydroxy-1,3,4,4a,5,10b-hexahydrophenanthridin-6(2H)-one]: the anti-HSV-1 activity entry in [1] is recorded as “no anti-HSV-1 activity”. Besides, the “anti-HSV-1 activity (expression of EGFP and RFP reporter genes)” value in [3] is given as “no anti-HSV-1 activity”. In [5], the “fraction of expressed genes significantly altered” value was found to be 2.1% and the “number of genes whose expression was significantly altered” value is given as 256.
Turning to `COc1cccc2c1C(=O)N[C@H]1[C@H](O)[C@H](O)[C@@H](O)C[C@H]21` [Compound 7, (2S,3R,4S,4aR,10bR)-2,3,4-Trihydroxy-7-methoxy-1,3,4,4a,5,10b-hexahydrophenanthridin-6(2H)-one], in data set [1], the anti-HSV-1 activity entry is “no anti-HSV-1 activity”. Besides, the “anti-HSV-1 activity (expression of EGFP and RFP reporter genes)” value in [3] is recorded as “no anti-HSV-1 activity”. For the same compound, in data set [5], the “fraction of expressed genes significantly altered” value stood at 0.3% and the “number of genes whose expression was significantly altered” value is listed as 33.
Regarding `O=C1N[C@H]2[C@H](O)[C@H](O)[C@@H](O)C[C@@H]2c2cccc(O)c21` [Compound Ia, (2S,3R,4S,4aR,10bR)-2,3,4,7-Tetrahydroxy-1,3,4,4a,5,10b-hexahydrophenanthridin-6(2H)-one], in data set [1] (01SD NPCs), the “reduction of the percentage of EGFP+-RFP+ cells” value is listed as 6.76 fold. Also, the “reduction of the percentage of EGFP+-RFP+ cells” value in [1] (9001 NPCs) amounted to 4.65 fold. In data set [2] (concentrations up to 50 μM, ACV and Ia compared), the “cell viability of treated cultures” value is “comparable”. Moreover, the “anti-HSV-1 activity (expression of EGFP and RFP reporter genes)” value in data set [3] is “no expression of EGFP and RFP reporter genes; also recorded: comparable to 2b and ACV”. The “organoid viability (calcein AM)” value in [15] was “No significant reduction in organoid viability”. For the same compound, the therapeutic selectivity in data set [4] (CC / IC50, SARS-CoV2 in Calu3 cells) is reported as 20. In data set [4] (Severe acute respiratory syndrome coronavirus 2, Calu-3), this compound had a pIC50 of 7.05. Also, in data set [5], the “fraction of expressed genes significantly altered” value was 59.8% and the “number of genes whose expression was significantly altered” value was 7,433. Besides, in [6], the “EIF2 signaling pathway z score” value is −1.763. For the same compound, the “eIF2α~P immunoreactivity” value in data set [7] is “increased eIF2α˜P immunoreactivity”. The “yield of infectious virus in the tears (HSV-1 shedding) compared to vehicle” value in data set [16] (2 uL of 50 μM solution in DMSO to the eyes daily for 4 days, n=10) is on record as “dramatically reduced the yield of infectious virus; also recorded: dramatically reduces HSV-1 shedding”. Besides, the “reduction of peak titer of infectious virus versus vehicle” value in data set [16] (2 uL of 50 μM solution topically daily) is around 3 fold. Also, the “delay of peak titer of infectious virus versus vehicle” value in [16] (2 uL of 50 μM solution topically daily, vehicle peak at day 2 post-infection) is on record as “one”. Also, in [8], the CC is 1.92 µM.
